For test [1], the target named is RAC-alpha serine/threonine-protein kinase (Homo sapiens) (UniProt P31749). Briefly: Inhibition of AKT1 (unknown origin) at 1 uM by Ambit Kinomescan binding assay relative to control.
The target in test [2] is Homeodomain-interacting protein kinase 4 (Homo sapiens) (UniProt Q8NE63). Briefly: Inhibition of HIPK4 (unknown origin) at 1 uM by Ambit Kinomescan binding assay relative to control; values are per cent of control.
The target of test [3] is Calcium/calmodulin-dependent protein kinase type II subunit gamma (Homo sapiens) (UniProt Q13555). Briefly: Inhibition of CaMK2g Lys1 labeling site harbouring TSTQEYAAKIINTK in human A-375 cells at 0.05 uM by KiNativ Profiling analysis relative to control. The format is cell-based.
Chain of Calcium/calmodulin-dependent protein kinase type II subunit gamma (Homo sapiens) (Q13555 whole entry): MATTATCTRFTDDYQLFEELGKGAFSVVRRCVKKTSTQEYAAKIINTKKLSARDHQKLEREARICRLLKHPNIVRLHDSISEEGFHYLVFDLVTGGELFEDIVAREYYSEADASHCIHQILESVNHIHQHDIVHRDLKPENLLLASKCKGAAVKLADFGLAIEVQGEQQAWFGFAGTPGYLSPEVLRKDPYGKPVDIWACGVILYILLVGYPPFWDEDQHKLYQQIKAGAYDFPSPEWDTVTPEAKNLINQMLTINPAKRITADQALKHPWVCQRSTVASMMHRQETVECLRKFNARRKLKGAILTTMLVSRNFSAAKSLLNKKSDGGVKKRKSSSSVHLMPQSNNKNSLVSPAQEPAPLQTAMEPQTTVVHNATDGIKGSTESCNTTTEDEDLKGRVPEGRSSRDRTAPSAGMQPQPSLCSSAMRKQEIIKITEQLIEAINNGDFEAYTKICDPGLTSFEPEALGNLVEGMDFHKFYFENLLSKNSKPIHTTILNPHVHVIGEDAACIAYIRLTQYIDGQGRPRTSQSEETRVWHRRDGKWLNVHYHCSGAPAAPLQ
Test [4] addresses T1, Serine/threonine-protein kinase Sgk3 (Homo sapiens) (UniProt Q96BR1).
T1 sequence (whole entry): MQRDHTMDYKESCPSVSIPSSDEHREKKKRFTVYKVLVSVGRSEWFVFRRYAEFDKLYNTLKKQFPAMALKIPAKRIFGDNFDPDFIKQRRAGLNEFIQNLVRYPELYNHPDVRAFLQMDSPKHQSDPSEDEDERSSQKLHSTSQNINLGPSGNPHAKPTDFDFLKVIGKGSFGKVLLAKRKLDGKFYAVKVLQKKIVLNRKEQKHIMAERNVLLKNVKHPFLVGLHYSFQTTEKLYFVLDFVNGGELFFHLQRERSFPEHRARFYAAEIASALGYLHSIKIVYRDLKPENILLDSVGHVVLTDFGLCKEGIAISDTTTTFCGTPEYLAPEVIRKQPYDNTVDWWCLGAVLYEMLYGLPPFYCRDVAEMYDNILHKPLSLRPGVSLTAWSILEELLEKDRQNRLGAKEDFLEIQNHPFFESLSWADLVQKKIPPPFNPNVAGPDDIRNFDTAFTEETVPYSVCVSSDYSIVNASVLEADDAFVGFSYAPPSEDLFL
Briefly: Inhibition of SGK3 Lys1 labeling site in human A-375 cells at 0.05 uM by KiNativ Profiling analysis relative to control. The format is cell-based.

Test [5] deals with T2, Mitogen-activated protein kinase kinase kinase 15 (Homo sapiens) (UniProt Q6ZN16).
T2 sequence (whole entry): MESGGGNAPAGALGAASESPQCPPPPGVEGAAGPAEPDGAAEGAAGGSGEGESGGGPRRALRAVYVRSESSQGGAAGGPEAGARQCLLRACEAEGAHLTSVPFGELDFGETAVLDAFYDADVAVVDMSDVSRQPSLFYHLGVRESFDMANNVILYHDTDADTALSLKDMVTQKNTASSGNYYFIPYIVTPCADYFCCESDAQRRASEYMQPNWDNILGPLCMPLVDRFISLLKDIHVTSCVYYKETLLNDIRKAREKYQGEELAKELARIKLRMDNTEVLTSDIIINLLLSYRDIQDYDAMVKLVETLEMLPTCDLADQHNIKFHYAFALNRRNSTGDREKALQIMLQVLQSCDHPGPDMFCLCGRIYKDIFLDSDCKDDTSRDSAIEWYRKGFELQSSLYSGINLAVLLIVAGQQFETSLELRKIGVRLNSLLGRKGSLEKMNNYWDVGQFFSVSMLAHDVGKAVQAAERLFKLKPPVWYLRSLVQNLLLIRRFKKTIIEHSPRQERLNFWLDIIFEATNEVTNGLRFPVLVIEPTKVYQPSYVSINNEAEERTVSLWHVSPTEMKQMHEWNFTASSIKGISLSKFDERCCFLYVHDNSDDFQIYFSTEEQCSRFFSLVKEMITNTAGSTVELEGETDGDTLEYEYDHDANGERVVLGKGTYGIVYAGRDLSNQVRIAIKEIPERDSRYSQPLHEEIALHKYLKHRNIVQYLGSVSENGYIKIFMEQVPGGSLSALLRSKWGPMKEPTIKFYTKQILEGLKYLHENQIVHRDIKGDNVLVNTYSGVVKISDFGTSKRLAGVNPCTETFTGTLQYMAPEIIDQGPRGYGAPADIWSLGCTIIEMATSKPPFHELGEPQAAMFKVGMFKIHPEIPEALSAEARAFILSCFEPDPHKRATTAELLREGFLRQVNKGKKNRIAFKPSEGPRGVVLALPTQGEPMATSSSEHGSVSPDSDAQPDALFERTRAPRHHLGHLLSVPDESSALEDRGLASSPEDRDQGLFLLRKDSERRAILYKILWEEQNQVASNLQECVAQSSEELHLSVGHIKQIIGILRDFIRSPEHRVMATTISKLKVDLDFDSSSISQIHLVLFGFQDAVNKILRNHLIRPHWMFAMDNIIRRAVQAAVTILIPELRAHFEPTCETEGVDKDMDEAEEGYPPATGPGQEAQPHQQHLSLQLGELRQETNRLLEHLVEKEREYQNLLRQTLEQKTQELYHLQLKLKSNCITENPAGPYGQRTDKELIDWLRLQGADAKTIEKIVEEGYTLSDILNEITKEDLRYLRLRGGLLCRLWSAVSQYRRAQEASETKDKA
Briefly: Inhibition of MAP3K15 Lys1 labeling site harbouring IAIKEIPERDSR in human A-375 cells at 0.05 uM by KiNativ Profiling analysis relative to control. The format is cell-based.

The target of test [6] is T3, Dual specificity mitogen-activated protein kinase kinase 6 (Homo sapiens) (UniProt P52564).
T3 sequence (whole entry): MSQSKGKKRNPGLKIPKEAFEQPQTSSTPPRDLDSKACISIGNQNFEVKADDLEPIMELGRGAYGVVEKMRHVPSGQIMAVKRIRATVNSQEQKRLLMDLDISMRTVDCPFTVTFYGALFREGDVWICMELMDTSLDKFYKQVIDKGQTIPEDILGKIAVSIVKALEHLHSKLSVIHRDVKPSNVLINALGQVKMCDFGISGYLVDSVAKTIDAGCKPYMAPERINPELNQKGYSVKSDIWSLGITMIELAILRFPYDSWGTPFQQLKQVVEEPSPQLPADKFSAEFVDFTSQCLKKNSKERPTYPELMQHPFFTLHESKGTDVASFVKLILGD
Briefly: Inhibition of MAP2K6 Lys1 labeling site in human A-375 cells at 0.5 uM by KiNativ Profiling analysis relative to control. The format is cell-based.

Test [7] deals with Epidermal growth factor receptor (Homo sapiens) (UniProt P00533). Briefly: Inhibition of EGFR Lys1 labeling site harbouring IPVAIKELR in human Huh-7 cell lysate at 1 uM by KiNativ Profiling analysis relative to control. The class given is subcellular.
Chain of Epidermal growth factor receptor (Homo sapiens) (P00533 whole entry): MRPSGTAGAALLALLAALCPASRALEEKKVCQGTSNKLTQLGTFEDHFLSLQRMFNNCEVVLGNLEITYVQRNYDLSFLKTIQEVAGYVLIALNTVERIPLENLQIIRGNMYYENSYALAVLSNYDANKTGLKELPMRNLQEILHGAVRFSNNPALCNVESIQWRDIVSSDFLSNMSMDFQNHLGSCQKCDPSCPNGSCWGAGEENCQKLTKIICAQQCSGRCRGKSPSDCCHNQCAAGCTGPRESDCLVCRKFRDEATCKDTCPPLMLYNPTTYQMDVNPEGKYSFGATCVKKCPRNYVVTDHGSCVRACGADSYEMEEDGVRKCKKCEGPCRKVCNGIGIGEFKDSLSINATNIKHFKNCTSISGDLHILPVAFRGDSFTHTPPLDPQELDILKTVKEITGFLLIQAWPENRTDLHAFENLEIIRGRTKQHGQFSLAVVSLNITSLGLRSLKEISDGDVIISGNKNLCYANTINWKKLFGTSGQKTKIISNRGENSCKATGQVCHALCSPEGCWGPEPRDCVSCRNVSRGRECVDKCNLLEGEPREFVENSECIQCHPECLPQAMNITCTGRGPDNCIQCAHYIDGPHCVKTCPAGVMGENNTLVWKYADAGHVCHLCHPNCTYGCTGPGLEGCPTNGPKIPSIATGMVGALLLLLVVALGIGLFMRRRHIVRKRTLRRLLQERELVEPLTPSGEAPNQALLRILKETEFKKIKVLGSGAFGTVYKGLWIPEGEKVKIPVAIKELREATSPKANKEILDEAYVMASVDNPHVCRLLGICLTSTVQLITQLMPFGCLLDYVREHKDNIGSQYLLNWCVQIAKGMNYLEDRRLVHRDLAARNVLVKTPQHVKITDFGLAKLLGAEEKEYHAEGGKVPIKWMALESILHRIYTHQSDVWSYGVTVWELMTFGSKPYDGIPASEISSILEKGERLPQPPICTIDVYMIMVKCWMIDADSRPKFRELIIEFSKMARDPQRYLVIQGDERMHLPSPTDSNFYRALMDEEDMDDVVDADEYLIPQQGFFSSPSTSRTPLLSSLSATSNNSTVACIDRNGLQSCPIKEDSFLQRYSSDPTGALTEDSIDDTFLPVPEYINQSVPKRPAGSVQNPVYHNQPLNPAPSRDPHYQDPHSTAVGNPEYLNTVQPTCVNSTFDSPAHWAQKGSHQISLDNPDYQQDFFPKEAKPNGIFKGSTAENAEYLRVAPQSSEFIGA
For test [8], the target named is Dual specificity mitogen-activated protein kinase kinase 2 (Homo sapiens) (UniProt P36507). Briefly: Inhibition of MAP2K2 Lys2 labeling site in human Huh-7 cell lysate at 1 uM by KiNativ Profiling analysis relative to control. The class given is subcellular.
Chain of Dual specificity mitogen-activated protein kinase kinase 2 (Homo sapiens) (P36507 whole entry): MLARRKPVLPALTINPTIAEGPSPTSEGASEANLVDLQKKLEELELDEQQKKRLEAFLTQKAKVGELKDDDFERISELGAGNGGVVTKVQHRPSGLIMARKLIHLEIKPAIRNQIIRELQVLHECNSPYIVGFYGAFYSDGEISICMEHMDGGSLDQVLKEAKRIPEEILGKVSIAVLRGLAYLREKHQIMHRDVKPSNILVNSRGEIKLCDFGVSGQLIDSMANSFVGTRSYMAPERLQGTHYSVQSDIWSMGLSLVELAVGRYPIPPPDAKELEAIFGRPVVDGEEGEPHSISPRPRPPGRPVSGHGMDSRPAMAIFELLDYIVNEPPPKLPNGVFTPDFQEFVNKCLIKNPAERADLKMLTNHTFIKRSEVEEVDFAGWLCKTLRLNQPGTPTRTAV
Test [9] deals with Ribosomal protein S6 kinase beta-2 (Homo sapiens) (UniProt Q9UBS0). Briefly: Inhibition of p70S6Kb ATP labeling site in human Huh-7 cell lysate at 1 uM by KiNativ Profiling analysis relative to control. The format is subcellular.
Chain of Ribosomal protein S6 kinase beta-2 (Homo sapiens) (Q9UBS0 whole entry): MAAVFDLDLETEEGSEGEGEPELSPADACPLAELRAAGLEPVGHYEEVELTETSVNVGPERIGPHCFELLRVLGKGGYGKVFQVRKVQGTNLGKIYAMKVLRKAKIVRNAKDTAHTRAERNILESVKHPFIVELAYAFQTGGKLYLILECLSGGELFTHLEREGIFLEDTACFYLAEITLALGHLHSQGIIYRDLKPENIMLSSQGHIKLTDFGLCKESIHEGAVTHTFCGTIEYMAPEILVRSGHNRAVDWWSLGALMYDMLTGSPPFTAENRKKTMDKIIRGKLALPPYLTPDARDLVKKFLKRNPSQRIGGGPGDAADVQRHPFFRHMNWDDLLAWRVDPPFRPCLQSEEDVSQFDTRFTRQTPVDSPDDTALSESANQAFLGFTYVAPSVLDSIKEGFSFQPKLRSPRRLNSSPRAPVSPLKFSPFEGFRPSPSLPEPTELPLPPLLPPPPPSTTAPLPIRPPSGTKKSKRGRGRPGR

The record followed here is ChEMBL document CHEMBL5696442, “Discovery of type II inhibitors of TGFβ-activated kinase 1 (TAK1) and mitogen-activated protein kinase kinase kinase kinase 2 (MAP4K2)” (J Med Chem, 2015).

Chain of RAC-alpha serine/threonine-protein kinase (Homo sapiens) (P31749 whole entry): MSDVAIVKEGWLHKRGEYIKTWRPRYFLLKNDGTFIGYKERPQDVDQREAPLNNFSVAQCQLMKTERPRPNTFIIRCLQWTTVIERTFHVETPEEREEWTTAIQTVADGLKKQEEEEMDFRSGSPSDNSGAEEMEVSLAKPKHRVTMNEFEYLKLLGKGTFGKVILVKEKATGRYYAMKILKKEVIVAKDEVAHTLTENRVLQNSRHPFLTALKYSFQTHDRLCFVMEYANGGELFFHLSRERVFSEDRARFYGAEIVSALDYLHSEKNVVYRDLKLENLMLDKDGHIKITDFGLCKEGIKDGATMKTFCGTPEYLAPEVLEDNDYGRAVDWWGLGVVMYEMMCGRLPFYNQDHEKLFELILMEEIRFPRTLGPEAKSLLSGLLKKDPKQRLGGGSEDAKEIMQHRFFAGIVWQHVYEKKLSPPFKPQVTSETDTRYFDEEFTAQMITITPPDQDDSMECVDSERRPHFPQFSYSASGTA
Chain of Homeodomain-interacting protein kinase 4 (Homo sapiens) (Q8NE63 whole entry): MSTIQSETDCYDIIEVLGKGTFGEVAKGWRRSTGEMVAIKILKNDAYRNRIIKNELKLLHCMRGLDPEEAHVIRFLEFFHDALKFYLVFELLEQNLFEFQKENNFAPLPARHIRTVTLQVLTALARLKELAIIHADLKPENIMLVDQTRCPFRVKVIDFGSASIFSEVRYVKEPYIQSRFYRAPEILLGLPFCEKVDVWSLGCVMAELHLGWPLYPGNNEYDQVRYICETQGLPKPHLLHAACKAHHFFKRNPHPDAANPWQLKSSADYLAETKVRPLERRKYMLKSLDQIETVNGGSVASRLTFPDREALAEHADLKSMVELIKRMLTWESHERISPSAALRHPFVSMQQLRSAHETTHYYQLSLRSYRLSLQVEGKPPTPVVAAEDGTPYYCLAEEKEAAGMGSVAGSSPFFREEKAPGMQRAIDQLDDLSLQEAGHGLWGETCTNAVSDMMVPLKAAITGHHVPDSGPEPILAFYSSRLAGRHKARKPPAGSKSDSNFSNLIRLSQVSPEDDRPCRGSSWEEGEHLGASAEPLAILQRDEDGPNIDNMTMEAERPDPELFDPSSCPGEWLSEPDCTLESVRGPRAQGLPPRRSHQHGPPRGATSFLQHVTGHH

Turning to `CCN1CCN(Cc2ccc(NC(=O)c3ccc(C)c(/C=C/c4cnc5[nH]ccc5c4OC)c3)cc2C(F)(F)F)CC1`, the figures for the inhibition in test [1] and in [3] were 100% and 26.3%, respectively. Also, the residual activity in [2] came out at 16%.
As for `CCN1CCN(Cc2ccc(NC(=O)c3ccc(C)c(Oc4ccnc5[nH]ccc45)c3)cc2C(F)(F)F)CC1`, the inhibition in test [4] is 3.5%; in [5], -3.3%; in test [6], 4.5%.
For `CNc1cc(Oc2cc(C(=O)Nc3cc(N4CCN(C)CC4)cc(C(F)(F)F)c3)ccc2C)ncn1`, the results for the inhibition in test [7], in test [8] and in test [9] were 4.5%, 15.6% and 2.8%, respectively.
